Here are results for one compound from publication PMC6639251, “Selective Kinase Inhibition Shows That Bur1 (Cdk9) Phosphorylates the Rpb1 Linker In Vivo” (Molecular and Cellular Biology, 2019).

In assay [1] the target is T1, Kin28/Cdk7 (Kin28-IS) (Saccharomyces cerevisiae, UniProt P06242, V21C/L83G).
T1 construct: allele integrated at the natural chromosomal locus; in living yeast and nuclear extract, part of TFIIH; HA-tagged plasmid form (35 kDa) only for expression test
T1 sequence (P06242 1-306 V21C/L83G): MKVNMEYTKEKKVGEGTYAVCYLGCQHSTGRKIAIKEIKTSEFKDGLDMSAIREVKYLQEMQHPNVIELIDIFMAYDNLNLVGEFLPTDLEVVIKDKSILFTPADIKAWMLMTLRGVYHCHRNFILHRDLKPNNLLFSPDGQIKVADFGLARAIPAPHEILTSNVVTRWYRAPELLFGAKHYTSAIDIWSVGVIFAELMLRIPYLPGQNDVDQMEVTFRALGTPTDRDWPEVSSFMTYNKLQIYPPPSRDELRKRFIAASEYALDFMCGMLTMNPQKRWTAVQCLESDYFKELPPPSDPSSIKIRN
Nature of the assay: immunoblot of Rpb1 CTD phosphorylation in yeast cells and in nuclear-extract elongation complexes. The assay is classed as cell-based. The settings on record: covalent; engineered hole and cysteine in ATP pocket; 20 uM in cells 15 min 30 C; 250 nM in nuclear extract. For orientation: A western blot detects proteins with antibodies after separation by electrophoresis.

For assay [2], the target named is T2, Ctk1/Cdk12 (Ctk1-IS) (Saccharomyces cerevisiae, UniProt Q03957, V197C/F260G).
T2 construct: allele integrated at the natural chromosomal locus; in living yeast and nuclear extract; HA3-tagged plasmid form (61 kDa) only for expression test
T2 sequence (Q03957 1-528 V197C/F260G): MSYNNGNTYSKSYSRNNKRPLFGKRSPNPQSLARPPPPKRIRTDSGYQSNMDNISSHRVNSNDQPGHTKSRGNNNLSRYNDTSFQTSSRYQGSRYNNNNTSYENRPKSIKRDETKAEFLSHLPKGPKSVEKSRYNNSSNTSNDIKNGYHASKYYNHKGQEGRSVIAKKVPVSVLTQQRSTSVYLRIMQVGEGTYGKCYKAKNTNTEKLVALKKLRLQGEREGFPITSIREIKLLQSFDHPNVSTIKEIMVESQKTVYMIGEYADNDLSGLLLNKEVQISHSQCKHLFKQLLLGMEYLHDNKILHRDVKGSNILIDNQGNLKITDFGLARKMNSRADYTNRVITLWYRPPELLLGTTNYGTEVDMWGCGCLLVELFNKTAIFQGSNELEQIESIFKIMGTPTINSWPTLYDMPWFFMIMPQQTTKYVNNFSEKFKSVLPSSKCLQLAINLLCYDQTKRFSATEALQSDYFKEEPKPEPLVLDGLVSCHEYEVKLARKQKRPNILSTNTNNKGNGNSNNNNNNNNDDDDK
Briefly: immunoblot of Rpb1 CTD Ser2P in yeast cells and in nuclear-extract elongation complexes. Format: cell-based. To be noted: covalent; engineered hole and cysteine in ATP pocket; 20 uM in cells 15 min 30 C; 250 nM in nuclear extract.

For `Cc1ccc(-c2c(C(=O)CCl)n(CCCO)c3ncnc(N)c23)cc1` [CMK], in assay [1], the “immunoblot of Rpb1 CTD phosphorylation in yeast cells and in nuclear-extract elo” value is on record as “treatment of the Kin28-IS strain with CMK led to a significant drop in CTD Ser5P”. Also, in assay [2], the “immunoblot of Rpb1 CTD Ser2P in yeast cells and in nuclear-extract elongation co” value was 15-min CMK treatment of Ctk1-IS cells caused very strong loss of Ser2P.
